In the oligonucleotide strings, read from the 5' end, every base follows the letter of its sugar. An asterisk marks phosphorothioate; unmarked linkages are phosphodiester. Other units and linkages are bracketed, terminal groups are in braces. A string of capitals states the bases alone. d = 2'-deoxy (DNA)
Tested on: human PBMC from steroid resistant asthmatics or healthy donors
Assay: Cytokine production in PBMC from steroid resistant asthmatics or healthy donors (Cytometric Bead Array)
Format: cell-based
Details: 25 μM or 100 μM, 48 hours, CBA
Method: Blood samples were obtained from healthy volunteers or steroid resistant asthmatics. PBMC were isolated by density gradient centrifugation using Ficoll-Paque Plus (Pharmacia Biotech, Uppsala, Sweden), washed three times in buffered saline solution (PBS), and re-suspended in RPMI 1640 (Sigma) containing 10% heat inactivated fetal calf serum (FCS) (Life Technologies), 100 U/mL penicillin 100 μg/mL streptomycin (Life Technologies), 2 mM L-glutamine (Sigma), gentamycin (Sigma) and 5 mM Hepes (Gibco, Life Technologies). Cells were counted using 0.4% Trypan blue solution (Sigma Aldrich)
PBMC, prepared as previously described were, directly after seeding, stimulated with SEQ.ID.NO. 1. (25 μM and 100 μM) in the presence or absence of Dex (10^−6, 10^−8 and 10^−10 M) into a 96-well flat bottomed cell culture plate at 500 000 cells/well in RPMIc. As control ODN, 1 μM of IDX0910 was used. After treatment, cells were incubated in a humified incubator at 5% carbon dioxide and 37° C. for 48 hrs. Supernatants were saved and stored at −20° C. prior to cytokine level determination.
The supernatants were kept at −20° C. until analyzed. IFN-, IL-6, IL-10, IL-2, IL-4 and TNF-alpha were measured utilizing the Cytometric Bead Array (CBA) from Becton Dickenson (BD), according to the manufacturer's protocol. The lower detection limit was 20 pg/ml for each cytokine. The FACSCalibur was used for all CBA analysis for this study.
PBMCs were incubated in medium (basal) or with 25 μM (hatched bars) or 100 μM (dotted bars) of the CpG containing SEQ.ID.NO.1 for 48 hours before detection of IL-6 in supernatant. Each bar of the histogram represents average amount of IL-6 production from 9 healthy donors and 9 steroid resistant asthmatics. Experiments were performed in triplicate for each blood donor. Background levels of IL-6 (medium) were subtracted from each group of samples.

5′-G*G*A*ACAGTTCGTCCAT*G*G*C-3′ (DNA dG*dG*dA*dAdCdAdGdTdTdCdGdTdCdCdAdT*dG*dG*dC) [SEQ.ID.NO 1, (Hu p65)AS, CpG-containing ODN; * marks phosphorothioate linkage, others phosphodiester]
significantly lower: IL-6 induced, steroid resistant PBMCs compared to healthy PBMCs (9 healthy donors and 9 steroid resistant asthmatics) | IL-10 induced, steroid resistant PBMCs compared to healthy PBMCs | interferon-gamma induced, steroid resistant PBMCs compared to healthy PBMCs
